Experiment [1] has as its target T1, Neprilysin (Rattus norvegicus) (UniProt P07861).
T1 sequence (whole entry): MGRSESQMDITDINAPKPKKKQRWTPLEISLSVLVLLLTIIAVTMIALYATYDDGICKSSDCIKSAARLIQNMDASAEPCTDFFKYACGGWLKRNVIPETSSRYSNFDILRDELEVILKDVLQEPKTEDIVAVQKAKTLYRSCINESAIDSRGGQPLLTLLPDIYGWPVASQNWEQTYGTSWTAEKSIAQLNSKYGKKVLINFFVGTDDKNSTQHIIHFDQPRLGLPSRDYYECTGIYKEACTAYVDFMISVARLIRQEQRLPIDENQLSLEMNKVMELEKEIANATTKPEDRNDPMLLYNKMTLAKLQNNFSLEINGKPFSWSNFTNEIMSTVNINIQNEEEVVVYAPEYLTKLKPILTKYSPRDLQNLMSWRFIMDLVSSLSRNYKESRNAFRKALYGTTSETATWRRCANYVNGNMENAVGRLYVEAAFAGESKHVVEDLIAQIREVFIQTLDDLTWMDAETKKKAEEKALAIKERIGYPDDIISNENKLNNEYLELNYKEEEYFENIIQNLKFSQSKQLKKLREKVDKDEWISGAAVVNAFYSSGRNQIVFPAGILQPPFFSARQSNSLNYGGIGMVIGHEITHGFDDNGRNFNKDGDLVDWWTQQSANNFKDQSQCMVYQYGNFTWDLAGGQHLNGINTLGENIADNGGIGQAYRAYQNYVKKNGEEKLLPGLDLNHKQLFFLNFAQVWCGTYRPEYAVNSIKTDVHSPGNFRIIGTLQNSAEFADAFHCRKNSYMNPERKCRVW
Nature of the experiment: Inhibitory activity (10 uM) against rat neutral endopeptidase (NEP).

The target in experiment [2] is T2, Endothelin-converting enzyme 1 (Homo sapiens) (UniProt P42892).
T2 sequence (whole entry): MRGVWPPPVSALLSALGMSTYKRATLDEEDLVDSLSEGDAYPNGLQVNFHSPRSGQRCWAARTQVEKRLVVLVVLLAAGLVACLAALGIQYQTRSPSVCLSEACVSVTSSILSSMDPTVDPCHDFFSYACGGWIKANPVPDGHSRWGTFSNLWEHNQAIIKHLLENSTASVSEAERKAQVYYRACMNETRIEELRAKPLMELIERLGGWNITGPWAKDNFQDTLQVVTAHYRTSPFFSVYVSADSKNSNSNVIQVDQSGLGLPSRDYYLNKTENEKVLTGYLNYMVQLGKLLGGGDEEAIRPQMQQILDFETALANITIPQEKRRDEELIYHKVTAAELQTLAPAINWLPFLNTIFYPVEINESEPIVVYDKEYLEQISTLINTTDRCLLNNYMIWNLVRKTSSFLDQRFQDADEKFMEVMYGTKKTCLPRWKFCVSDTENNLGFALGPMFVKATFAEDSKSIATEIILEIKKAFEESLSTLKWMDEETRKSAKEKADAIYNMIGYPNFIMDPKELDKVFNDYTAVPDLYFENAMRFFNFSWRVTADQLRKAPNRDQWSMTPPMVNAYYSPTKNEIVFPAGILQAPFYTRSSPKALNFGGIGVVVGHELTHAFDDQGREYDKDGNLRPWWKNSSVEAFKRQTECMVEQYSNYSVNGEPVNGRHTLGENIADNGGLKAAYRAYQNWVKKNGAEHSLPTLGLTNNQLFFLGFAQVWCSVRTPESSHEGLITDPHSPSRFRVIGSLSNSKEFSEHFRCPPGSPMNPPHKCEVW
In words: Inhibitory activity (1 uM) was assessed on CHO cells expressing in recombinant human Endothelin-converting enzyme 1 (ECE-1).

SMILES strings stand for the structures.

As to `COc1ccccc1C#CC[C@H](NCP(=O)(O)O)C(=O)N[C@@H](CC(C)C)C(=O)O`, the inhibition worked out at 12% in experiment [1] and 0% in experiment [2].

A word on the inhibition: it is the relative decrease from the control value, in per cent.

The record behind these values is ChEMBL document CHEMBL1131381, “Design and synthesis of potent, selective inhibitors of endothelin-converting enzyme” (J Med Chem, 1998).
